Values of other authors as cited in PubChem BioAssay AID1259409 (Chemical Carcinogenesis Research Information System (CCRIS), 2018).

System: rodent chemically induced tumor inhibition, incidence and multiplicity
Assay: CCRIS tumor inhibitor studies

SMILES: Oc1ccccc1O
- tumour outcome (control, treated, inhibition, significance) (Carcinogen: 3,2'-DIMETHYL-4-AMINOBIPHENYL, 13394-86-0, Dose [Inhibitor]: 0, 0.8% IN BASAL DIET BEGINNING POST CARCINOGEN TREATMENT AND CONTINUING FOR 40 (STUDY DURATION: 60 WK), Route [Inhibitor]: ORAL, Species: RAT, Strain/Sex: F344/MALE, Target Tissue: Type of Lesion: SUBCUTIS: TUMOR, Dose [Carcinogen]: 50 MG/KG 1/2 WK FOR 20 WK TO RATS MAINTAINED ON ETHINYL ESTRADIOL CONTAINING DIET (0.75 PPM) FOR 1 WK CYCLED WITH ETHINY, Promoter: ETHINYL ESTRADIOL, 57-63-6): 1/10 (10%), 1/11 (9%), 10%, not significant
- tumour outcome (control, treated, inhibition, significance) (Carcinogen: 3,2'-DIMETHYL-4-AMINOBIPHENYL, 13394-86-0, Dose [Inhibitor]: 0, 0.8% IN BASAL DIET BEGINNING POST CARCINOGEN TREATMENT AND CONTINUING FOR 40 WK (STUDY DURATION: 60 WK), Route [Inhibitor]: ORAL, Species: RAT, Strain/Sex: F344/MALE, Target Tissue: Type of Lesion: LARGE INTESTINE: ADENOMA AND ADENOCARCINOMA, Dose [Carcinogen]: 50 MG/KG 1/2 WK FOR 20 WK TO RATS MAINTAINED ON ETHINYL ESTRADIOL CONTAINING DIET (0.75 PPM) FOR 1 WK CYCLED WITH ETHINY, Promoter: ETHINYL ESTRADIOL, 57-63-6): 3/10 (30%), 5/11 (45%), -50%, not significant
- tumour outcome (control, treated, inhibition, significance) (Carcinogen: 3,2'-DIMETHYL-4-AMINOBIPHENYL, 13394-86-0, Dose [Inhibitor]: 0, 0.8% IN BASAL DIET BEGINNING POST CARCINOGEN TREATMENT AND CONTINUING FOR 40 WK (STUDY DURATION: 60 WK), Route [Inhibitor]: ORAL, Species: RAT, Strain/Sex: F344/MALE, Target Tissue: Type of Lesion: PANCREAS: ACINAR CELL NODULE, Dose [Carcinogen]: 50 MG/KG 1/2 WK FOR 20 WK TO RATS MAINTAINED ON ETHINYL ESTRADIOL CONTAINING DIET (0.75 PPM) FOR 1 WK CYCLED WITH ETHINY, Promoter: ETHINYL ESTRADIOL, 57-63-6): 4/10 (40%), 4/11 (36%), 10%, not significant
- tumour outcome (control, treated, inhibition, significance) (Carcinogen: 3,2'-DIMETHYL-4-AMINOBIPHENYL, 13394-86-0, Dose [Inhibitor]: 0, 0.8% IN BASAL DIET BEGINNING POST CARCINOGEN TREATMENT AND CONTINUING FOR 40 WK (STUDY DURATION: 60 WK), Route [Inhibitor]: ORAL, Species: RAT, Strain/Sex: F344/MALE, Target Tissue: Type of Lesion: PREPUTIAL GLAND: ADENOMA AND CARCINOMA, Dose [Carcinogen]: 50 MG/KG 1/2 WK FOR 20 WK TO RATS MAINTAINED ON ETHINYL ESTRADIOL CONTAINING DIET (0.75 PPM) FOR 1 WK CYCLED WITH ETHINY, Promoter: ETHINYL ESTRADIOL, 57-63-6): 5/10 (50%), 4/11 (36%), 28%, not significant
- tumour outcome (control, treated, inhibition, significance) (Carcinogen: 3,2'-DIMETHYL-4-AMINOBIPHENYL, 13394-86-0, Dose [Inhibitor]: 0, 0.8% IN BASAL DIET BEGINNING POST CARCINOGEN TREATMENT AND CONTINUING FOR 40 WK (STUDY DURATION: 60 WK), Route [Inhibitor]: ORAL, Species: RAT, Strain/Sex: F344/MALE, Target Tissue: Type of Lesion: PROSTATE: CARCINOMA, Dose [Carcinogen]: 50 MG/KG 1/2 WK FOR 20 WK TO RATS MAINTAINED ON ETHINYL ESTRADIOL CONTAINING DIET (0.75 PPM) FOR 1 WK CYCLED WITH ETHINY, Promoter: ETHINYL ESTRADOL, 57-63-6): 5/10 (50%), 3/11 (27%), 46%, not significant
- tumour outcome (control, treated, inhibition, significance) (Carcinogen: 3,2'-DIMETHYL-4-AMINOBIPHENYL, 13394-86-0, Dose [Inhibitor]: 0, 0.8% IN BASAL DIET BEGINNING POST CARCINOGEN TREATMENT AND CONTINUING FOR 40 WK (STUDY DURATION: 60 WK), Route [Inhibitor]: ORAL, Species: RAT, Strain/Sex: F344/MALE, Target Tissue: Type of Lesion: SMALL INTESTINE: ADENOMA AND ADENOCARCINOMA, Dose [Carcinogen]: 50 MG/KG 1/2 WK FOR 20 WK TO RATS MAINTAINED ON ETHINYL ESTRADIOL CONTAINING DIET (0.75 PPM) FOR 1 WK CYCLED WITH ETHINY, Promoter: ETHINYL ESTRADIOL, 57-63-6): 2/10 (20%), 1/11 (9%), 55%, not significant
- tumour outcome (control, treated, inhibition, significance) (Carcinogen: 3,2-DIMETHYL-4-AMINOBIPHENYL, 13394-86-0, Dose [Inhibitor]: 0, 0.8% IN BASAL DIET BEGINNING POST CARCINOGEN TREATMENT AND CONTINUING FOR 40 WK (STUDY DURATION: 60 WK), Route [Inhibitor]: ORAL, Species: RAT, Strain/Sex: F344/MALE, Target Tissue: Type of Lesion: ZYMBAL GLAND: ADENOMA AND CARCINOMA, Dose [Carcinogen]: 50 MG/KG 1/2 WK FOR 20 WK TO RATS MAINTAINED ON ETHINYL ESTRADIOL CONTAINING DIET (0.75 PPM) FOR 1 WK CYCLED WITH ETHINY, Promoter: ETHINYL ESTRADIOL, 57-63-6): 2/10 (20%), 0/11 (0%), 100%, not significant
- tumour outcome (control, treated, inhibition, significance) (Carcinogen: 7,12-DIMETHYLBENZ[A]ANTHRACENE, 57-97-6, Dose [Inhibitor]: 0, 0.4% IN DIET FOR 35 WK BEGINNING POST CARCINOGEN DOSE (STUDY DURATION: 36 WK), Route [Inhibitor]: ORAL, Species: RAT, Strain/Sex: SPRAGUE-DAWLEY/FEMALE, Target Tissue: Type of Lesion: EAR DUCT: TUMOR, Dose [Carcinogen]: 50 MG/KG BW IN CORN OIL ONCE, Promoter: NONE USED): 5/15 (33%), 2/15 (13%), 61%, not significant
- tumour outcome (control, treated, inhibition, significance) (Carcinogen: 7,12-DIMETHYLBENZ[A]ANTHRACENE, 57-97-6, Dose [Inhibitor]: 0, 0.4% IN DIET FOR 35 WK BEGINNING POST CARCINOGEN DOSE (STUDY DURATION: 36 WK), Route [Inhibitor]: ORAL, Species: RAT, Strain/Sex: SPRAGUE-DAWLEY/FEMALE, Target Tissue: Type of Lesion: MAMMARY GLAND: ADENOCARCINOMA, Dose [Carcinogen]: 50 MG/KG BW IN CORN OIL ONCE, Promoter: NONE USED): 14/15 (93%), 15/15 (100%), -8%, not significant
- tumour outcome (control, treated, inhibition, significance) (Carcinogen: 7,12-DIMETHYLBENZ[A]ANTHRACENE, 57-97-6, Dose [Inhibitor]: 0, 0.4% IN DIET FOR 35 WK BEGINNING POST CARCINOGEN DOSE (STUDY DURATION: 36 WK), Route [Inhibitor]: ORAL, Species: RAT, Strain/Sex: SPRAGUE-DAWLEY/FEMALE, Target Tissue: Type of Lesion: MAMMARY GLAND: FIBROADENOMA, Dose [Carcinogen]: 50 MG/KG BW IN CORN OIL ONCE, Promoter: NONE USED): 3/15 (20%), 0/15 (0%), 100%, not significant
- tumour outcome (control, treated, inhibition, significance) (Carcinogen: 7,12-DIMETHYLBENZ[A]ANTHRACENE, 57-97-6, Dose [Inhibitor]: 0, 12 MG 2/WK FOR 30 WK APPLIED 20 MIN PRIOR TO EACH PROMOTER DOSE (STUDY DURATION: 32 WK), Route [Inhibitor]: DERMAL, Species: MOUSE, Strain/Sex: SENCAR/FEMALE, Target Tissue: Type of Lesion: SKIN: PAPILLOMA, Dose [Carcinogen]: 25 NMOL ONCE, Promoter: M-CHLOROPEROXYBENZOIC ACID, 937-14-4): 39%, 0%, 100%, not calculated
- tumour outcome (control, treated, inhibition, significance) (Carcinogen: BENZO[A]PYRENE, 50-32-8, Dose [Inhibitor]: 2 MG IN 0.1 ML ACETONE 3/WK ADMINISTERED SIMULTANEOUSLY WITH CARCINOGEN FOR DURATION OF STUDY (STUDY DURATION: 368 D), Route [Inhibitor]: DERMAL, Species: MOUSE, Strain/Sex: ICR/FEMALE, Target Tissue: Type of Lesion: SKIN: PAPILLOMA, Dose [Carcinogen]: 5 UG IN 0.1 ML ACETONE 3/WK FOR DURATION OF STUDY, Promoter: NONE USED): 14/50 (28%), 36/50 (72%), -157%, not calculated
- tumour outcome (control, treated, inhibition, significance) (Carcinogen: BENZO[A]PYRENE, 50-32-8, Dose [Inhibitor]: 2 MG IN 0.1 ML ACETONE 3/WK ADMINISTERED SIMULTANEOUSLY WITH CARCINOGEN FOR DURATION OF STUDY (STUDY DURATION: 368 D), Route [Inhibitor]: DERMAL, Species: MOUSE, Strain/Sex: ICR/FEMALE, Target Tissue: Type of Lesion: SKIN: SQUAMOUS CARCINOMA, Dose [Carcinogen]: 5 UG IN 0.1 ML ACETONE 3/WK FOR DURATION OF STUDY, Promoter: NONE USED): 10/50 (20%), 31/50 (62%), -210%, not calculated
- tumour outcome (control, treated, inhibition, significance) (Carcinogen: N-BIS(2-HYDROXYPROPYL)NITROSAMINE, 53609-64-6, Dose [Inhibitor]: 0, 0.8% IN DIET FOR 30 WK BEGINNING POST CARCINOGEN TREATMENT (STUDY DURATION: 32 WK), Route [Inhibitor]: ORAL, Species: RAT, Strain/Sex: F344/MALE, Target Tissue: Type of Lesion: BLADDER: ADENOMA, Dose [Carcinogen]: 0.1% IN DRINKING WATER FOR 2 WK, Promoter: NONE USED): 5%, 0%, 100%, not calculated
